Assays:
[1] = test system: A2780; assay: MTT viability assay, A2780; format: cell-based; conditions: Homo sapiens, 24 h
Protocol: Cell viability was assessed with the MTT test and with lactate dehydrogenase (LDH) release assay. As per the MTT method, normal and cancer cells were seeded into 96-well plates at high density and allowed to attach overnight. Then they were incubated in a medium containing 1.25 mg/mL of the MTT salt [3-(4,5-dimethylthiazol-2-yl)-2,5-diphenyltetrazolium bromide] for 24 h at 37°C. The generated formazan was solubilized with 20% sodium dodecyl sulphate and 50% N,N-dimethylformamide. Absorbance of the converted dye was recorded at 595 nm with a reference wavelength of 690 nm.
(§1) In order to examine the effect of 3,3′,4,4′-THS on the viability of ovarian cancer cells and to compare its activity with RVT, subconfluent cultures of A2780, OVCAR-3, and SKOV-3 cells were subjected to a wide range of stilbene concentrations (0–500 μM) for 24 h; then MTT and LDH release assays were performed.

[2] = test system: A2780; assay: LDH release assay, A2780; format: cell-based; conditions: Homo sapiens, 24 h; for IC50: CalcuSyn
Protocol: (§2) As per LDH release, the measurements were performed using the commercially available Pierce LDH Cytotoxicity Assay Kit (Pierce Biotechnology, Rockford, IL, USA). In this assay, cells with damaged plasma membranes release LDH into the culture environment; then the enzyme catalyses the conversion of lactate to pyruvate, which is accompanied by a reduction of NAD^+ to NADH. Afterwards, diaphorase uses NADH to reduce a tetrazolium salt to a formazan whose level is proportional to LDH activity. The absorbance emitted by the formazan was monitored at 490 nm with a reference wavelength of 680 nm.
as §1

[3] = test system: SKOV-3; assay: LDH release assay, SKOV-3; format: cell-based; conditions: Homo sapiens; for IC50: SK-OV-3, 24 h, CalcuSyn
Protocol: as §2, §1

[4] = test system: SKOV-3 cells; assay: ROS production (H2DCFDA), SKOV-3; format: cell-based, human; conditions: 24 h, 10, 50, 100 μM tested
Protocol: (§3) ROS production was assessed in cells probed with a fluorescent dye, 2′,7′-dichlorodihydrofluorescein diacetate (H2DCFDA; 5 μM) (Molecular Probes, Eugene, USA) for 45 min at 37°C. Fluorescence intensity in cell lysates was monitored in a Victor2 spectrofluorometer with excitation at 485 nm and emission at 535 nm.

[5] = test system: HOSE cells; assay: ROS production (H2DCFDA), HOSE cells; format: cell-based, human; conditions: 24 h, percentage of control cells
Protocol: as §3

[6] = test system: superoxide dismutase (SOD); assay: SOD activity in cell lysates, A2780; format: cell-based, human; conditions: 24 h, 10, 50, 100 μM tested
Protocol: (§4) Total activity of superoxide dismutase (SOD) was measured in cell lysates with a commercially available kit (R&D Systems Europe, Abingdon, UK), while the activity of catalase (CAT) was estimated by using the OxiSelect Catalase Activity Assay Kit (Cell Biolabs Inc., San Diego, CA, USA). Both assays were performed according to the manufacturer's instructions.

[7] = test system: catalase (CAT); assay: CAT activity, HPMCs; format: cell-based, human; conditions: 24 h, percentage of control cells
Protocol: as §4

[8] = test system: A2780 cells; assay: Oxidative DNA damage (8-OH-dG immunoassay), A2780; format: cell-based, human; conditions: 24 h, 10, 50, 100 μM tested
Protocol: Oxidative DNA damage was assessed by measuring the 8-OH-dG concentration with a competitive immunoassay (Cell Biolabs Inc.), as per manufacturer's instructions. The efficiency of 8-OH-dG repair was estimated after cell recovery for 24 h in standard growth medium. In order to examine the activity of DNA glycosylase I, reverse transcription PCR was performed. RNA extraction was carried out using the RNA Bee (Tel-Test, Friendswood, Texas, USA) and purified according to the manufacturer's protocol. One microgram of RNA was reverse transcribed into cDNA with random hexamer primers, and cDNA was subjected to PCR. The profile of the replication cycles was denaturation at 94°C for 50 s, annealing at 58°C for 50 s, and polymerization at 72°C for 1 min. In each reaction, the expression of glyceraldehyde-3-phosphate dehydrogenase (GAPDH) served as the internal control. The primers used for PCR were as follows: hOGG1 forward, 5′-[…]-3′; hOGG1 reverse, 5′-TAGCCCGCCCTGTTCTTC-3′ designed to amplify a 551-bp region; GAPDH forward, 5′-CCATGGAGAAGGCTGGGG-3′; and GAPDH reverse 5′-[…]-3′ designed to amplify a 194-bp region (total number of cycles: 28). The PCR products were separated on 3% agarose gels stained with ethidium bromide and then visualized.

[9] = test system: OVCAR-3 cells; assay: Cell proliferation (CFDA SE), OVCAR-3; format: cell-based, human; conditions: low-density cultures, 24 h, 10, 50, 100 μM tested
Protocol: Cell proliferative potential was determined using Cell Proliferation Kit I (PromoKine, Heidelberg, Germany) according to the manufacturer's instructions. In brief, cells were probed for 15 min with 5-(and 6)-carboxyfluorescein diacetate, a succinimidyl ester (CFDA SE; 2 μM) which diffuses into cells, covalently binds to proteins, and becomes fluorescent upon its hydrolysis by intracellular esterases. The fluorescence emitted by the cells (the dye is inherited by the daughter cells through successive divisions) was recorded using a Victor2 spectrofluorometer (Perkin-Elmer, Turku, Finland) with excitation at 435 nm and emission at 535 nm.

[10] = test system: HOSE cells; assay: SA-β-Gal activity (senescence), HOSE cells; format: cell-based, human; conditions: 24 h, percentage of control cells
Protocol: (§5) The activity of SA-β-Gal in the cell extracts was quantified by measuring the rate of conversion of 4-methylumbelliferyl-β-D-galactopyranoside to 4-methylumbelliferone, as described in [19]. In order to visualize expression of the enzyme in the cancer cell cytoplasm, cytochemical staining for SA-β-Gal was performed according to Dimri et al..

[11] = test system: HPMCs; assay: SA-β-Gal activity (senescence), HPMCs; format: cell-based, human; conditions: 24 h, percentage of control cells
Protocol: as §5

[12] = test system: caspase-3; assay: Caspase-3 activity in ovarian cancer cell lysates; format: cell-based, human; conditions: ovarian cancer cells (A2780, OVCAR-3, SKOV-3); 24 h
Protocol: Identification of apoptosis was based on the presence of DNA condensation in cells stained with a fluorescent dye, Hoechst 33258 (Molecular Probes, Eugene, OR). Cells were grown on Lab-Tek Chamber Slides (Nunc, Roskilde, Denmark), fixed with 4% formaldehyde for 10 min and washed twice with PBS. Then the cells were incubated with Hoechst 33258 (0.1 μg/mL) for 5 min in the dark. After washing with PBS, stained nuclei were observed and counted under a Zeiss Axio Observer D1 fluorescence microscope (Carl Zeiss, Jena, Germany). The activity of caspases 3, 8, and 9 was quantified in the cell lysates using specific colorimetric kits (Abcam, Cambridge, UK) according to the manufacturer's instructions.

[13] = 10 μM, percentage of control cells
[14] = 50 μM, percentage of control cells
[15] = 100 μM, percentage of control cells
[16] = CalcuSyn, read-out: IC50, MTT assay

IC50 [1, 16] [µM]	IC50 [2] [µM]	IC50 [3] [µM]	Structure (SMILES)	generation of ROS, effect in words [4]	ROS ([5]; 10 μM)	ROS ([5]; 50 μM)	ROS ([5]; 100 μM)	SOD activity, effect in words [6]	CAT ([7]; 10 μM)	CAT ([7]; 50 μM)	CAT ([7]; 100 μM)	concentration of 8-OH-dG (oxidative DNA damage), effect in words [8]	proliferation, effect in words [9]	SA-β-Gal ([10]; 10 μM) [%]	SA-β-Gal ([10]; 50 μM) [%]	SA-β-Gal ([10]; 100 μM) [%]	SA-β-Gal ([11]; 10 μM)	SA-β-Gal ([11]; 50 μM) [%]	SA-β-Gal ([11]; 100 μM) [%]	caspase-3 activity, effect in words [12]	further results
4	6	10	Oc1ccc(/C=C/c2ccc(O)c(O)c2)cc1O [3,3′,4,4′-THS, 3,3′,4,4′-tetrahydroxy-trans-stilbene]	remarkably stronger	75 ± 4^∗# %	72 ± 3^∗# %	99 ± 4 %	increased SOD at 10 μM and decreased the activity of the enzyme at 50 and 100 μM	112 ± 2^∗# %	123 ± 4^∗# %	154 ± 1^∗# %	only concentrations of 50 and 100 μM were effective	evident at as low a concentration as 10 μM	99 ± 2	101 ± 3	102 ± 5	76 ± 3^∗# %	104 ± 4	99 ± 3	increased the activity of the same caspases as RVT did	viability at 10 µM [1, 13]: 20 ± 3%; viability at 50 µM [1, 14]: 14 ± 3%; viability at 100 µM [1, 15]: 13 ± 3%; IC50 ([1]; read-out: IC50 (range over MTT and LDH release assays)): 4 to 6 µM; viability at 10 µM [2, 13]: 42 ± 3%; viability at 50 µM [2, 14]: 26 ± 3%; viability at 100 µM [2, 15]: 22 ± 3%; viability at 10 µM ([3]; SK-OV-3, 10 μM, 24 h, percentage of control cells): 50 ± 2%; viability at 50 µM ([3]; SK-OV-3, 50 μM, 24 h, percentage of control cells): 32 ± 12%; viability at 100 µM ([3]; SK-OV-3, 100 μM, 24 h, percentage of control cells): 24 ± 7%
48	65	346	Oc1ccc(/C=C/c2cc(O)cc(O)c2)cc1 [RVT, 3,4′,5-trihydroxy-trans-stilbene, reference compound]	stimulated the release of ROS	103 ± 3%	105 ± 4%	121 ± 7^∗ %	upregulated activity of the enzyme	101 ± 1%	103 ± 4%	118 ± 3^∗ %	induced DNA injury in A2780 and SKOV-3 at 50 and 100 μM	effectively reduced the expandability	101 ± 2	101 ± 2	100 ± 3	100 ± 2%	102 ± 4	100 ± 1	activated caspases 9 and 3, and this activity was evident at 50 and 100 μM	

— article PMC4502315, “High Potency of a Novel Resveratrol Derivative, 3,3′,4,4′-Tetrahydroxy-trans-stilbene, against Ovarian Cancer Is Associated with an Oxidative Stress-Mediated Imbalance between DNA Damage Accumulation and Repair” (Oxidative Medicine and Cellular Longevity, 2015)
